Values of other authors in PMC12802961 (Journal of Antimicrobial Chemotherapy, 2025).
Like-named read-outs stand apart in the source and are kept apart here.

Details: cited from earlier work

Row | Compound | Ct (threshold concentration) (ceftazidime/avibactam) [mg/L] | Ct (threshold concentration) (ceftolozane/tazobactam) [mg/L]
1 | NC(=O)[C@@H]1CC[C@@H]2CN1C(=O)N2OS(=O)(=O)O [avibactam] | 1 | –
2 | C[C@]1(Cn2ccnn2)[C@H](C(=O)O)N2C(=O)C[C@H]2S1(=O)=O [tazobactam] | – | 0.5
